Source: PMC10726357, “New Genetically Engineered Derivatives of Antibacterial Darobactins Underpin Their Potential for Antibiotic Development” (Journal of Medicinal Chemistry, 2023)
Converted amounts (≈) assume the structure as drawn. Where two headings read alike, the source gives them in different places.

What was measured:
[1] = target: T1, EcBamA (E. coli BamA barrel domain) (Escherichia coli, UniProt P0A940, C690S/C700S); assay: Microscale thermophoresis (MST) KD determination; type: binding
T1 construct: The E. coli BamA barrel domain (BamA-β) (residues 421–810, C690S, C700S); made in house
Protocol: As an alternative to the previously published methods using isothermal titration calorimetry (ITC), we established a KD determination assay using microscale thermophoresis (MST) to enable higher throughput.
Microscale thermophoresis (MST) (serial no. 201709-BR-N024, Monolith NT.115 Micro Scale Thermophoresis, NanoTemper Technologies GmbH) was performed according to the standard protocol from the manufacturer NanoTemper Technologies GmbH using a Monolith His-Tag Labeling Kit RED-tris-NTA second-generation kit. The buffer used was HEPES (50 mM), pH 7.6, MgCl2 (5 mM), and Tween (0.05%). […] A 1:1 dilution of the ligand over 16 samples was performed using a stock of ligand (in water) diluted in HEPES buffer. Nonhydrophobic capillary tubes were used. A pretest to check for the labeling and compound fluorescence was performed for every sample followed by a binding affinity (KD) determination. Each sample was measured after 15 min of incubation at RT and analyzed in MO Control version 1.6.

[2] = test system: P. aeruginosa PA01; type: cell-based, Pseudomonas aeruginosa
Protocol: (§1) The antibacterial activity of novel darobactins was determined by the evaluation of the minimum inhibitory concentration (MIC) as previously described for crude extracts and for pure darobactin analogues.[12]

[3] = test system: HepG2
[4] = test system: A. baumannii DSM-30008; type: cell-based, Acinetobacter baumannii
Protocol: as §1

[5] = test system: E. coli ATCC25922; type: cell-based, Escherichia coli
Protocol: as §1

[6] = test system: K. pneumoniae DSM-30104; type: cell-based, Klebsiella pneumoniae
Protocol: as §1

[7] = test system: P. aeruginosa PA14 DSM 19882; type: cell-based, Pseudomonas aeruginosa
Protocol: as §1

[8] = rat (Wistar) plasma; 1 μM
Protocol: (§2) To determine stability in plasma, the compound (1 μM) was incubated with pooled CD-1 mouse, Wistar rat, or human plasma (Neo Biotech, Nanterre, France). […] Samples were stored on ice until the end of the incubation, and precipitated protein was removed by centrifugation (15 min, 4 °C, 4000g, and 2 centrifugation steps). The concentration of the remaining test compound at the different time points was analyzed by HPLC-MS/MS (TSQ Quantum Access MAX, Thermo Fisher, Dreieich, Germany). The plasma stability of procaine, propantheline, and diltiazem was determined in parallel to confirm the enzymatic activity.

[9] = test system: P. aeruginosa 84389 (MDR clinical isolate); assay: microbe, parasite or virus in culture
Protocol: as §1

[10] = test system: P. aeruginosa 83979 (MDR clinical isolate); assay: microbe, parasite or virus in culture; conditions: for MIC: Pseudomonas aeruginosa
Protocol: as §1

[11] = test system: A. baumannii NCTC 13301; type: cell-based, Acinetobacter baumannii
Protocol: as §1

[12] = test system: A. baumannii ATCC 17978; type: cell-based, Acinetobacter baumannii
Protocol: as §1

[13] = human plasma; 1 μM
Protocol: as §2

[14] = for liver microsomes Clint / liver microsomes t1/2: 1 μM; for liver microsomes t1/2: 120 min incubation
Protocol: The metabolic stability of testosterone, verapamil, and ketoconazole was determined in parallel to confirm the enzymatic activity of mouse/rat liver microsomes; for human liver microsomes, testosterone, diclofenac, and propranolol were used. Incubation was stopped after defined time points by precipitation of aliquots of enzymes with 2 volumes of cold acetonitrile containing an internal standard (15 nM diphenhydramine). Samples were stored on ice until the end of the incubation, and precipitated protein was removed by centrifugation (15 min, 4 °C, and 4000g). The concentration of the remaining test compound at the different time points was analyzed by HPLC-MS/MS (TSQ Altis Plus, Thermo Fisher, Dreieich, Germany) and used to determine the half-life (t1/2).

[15] = test system: Acinetobacter baumannii DSM-30007; type: cell-based
Protocol: as §1

[16] = test system: Gram-negative bacteria; conditions: result in words; cited from earlier work

For `C[C@@H](O)[C@@H]1NC(=O)[C@H]2NC(=O)[C@H](CCC(N)=O)NC(=O)[C@@H](N)Cc3c[nH]c4c(cccc34)O[C@@H]2c2c[nH]c3cc(ccc23)[C@H](CCCN)[C@@H](C(=O)N[C@@H](CCCNC(=N)N)C(=O)N[C@@H](Cc2c[nH]c3ccccc23)C(=O)O)NC1=O` [D61], the Kd [1] was 3.6 ± 0.6 µM, the “MIC P. aeruginosa [PA01]” value ([2]; pure compound, n = 2, Table 2) was 4 µg/mL (≈ 3.63 µM) and the “IC50 HepG2” value ([3]; cytotoxicity, n = 2) was greater than 37 µg/mL. The “MIC A. baumannii [DSM-30008]” value ([4]; pure compound, n = 2, Table 2) was 0.5 µg/mL (≈ 0.454 µM), the “MIC E. coli [ATCC25922]” value ([5]; pure compound, n = 2, Table 2) was 2 µg/mL (≈ 1.81 µM) and the “MIC K. pneumoniae [DSM-30104]” value ([6]; pure compound, n = 2, Table 2) was 8 µg/mL (≈ 7.26 µM).
With `C[C@@H](O)[C@@H]1NC(=O)[C@H]2NC(=O)[C@H](CO)NC(=O)[C@@H](N)Cc3c[nH]c4c(cccc34)O[C@@H]2c2c[nH]c3cc(ccc23)[C@H](CCCN)[C@@H](C(=O)N[C@@H](CCCNC(=N)N)C(=O)N[C@@H](Cc2c[nH]c3ccccc23)C(=O)O)NC1=O` [D64] the Kd [1] was 5.1 ± 0.7 µM, the “MIC P. aeruginosa [PA01]” value [2] was 2 µg/mL (≈ 1.88 µM) and the “IC50 HepG2” value [3] was greater than 37 µg/mL. The “MIC A. baumannii [DSM-30008]” value ([4]; DSM-30008) was 0.5 µg/mL (≈ 0.471 µM), the “MIC E. coli [ATCC25922]” value ([5]; ATCC25922) was 4 µg/mL (≈ 3.77 µM) and the “MIC K. pneumoniae [DSM-30104]” value ([6]; DSM-30104) was 16 µg/mL (≈ 15.1 µM).
With `N=C(N)NCCC[C@H](NC(=O)[C@H]1NC(=O)[C@H](CO)NC(=O)[C@H]2NC(=O)[C@H](CCC(N)=O)NC(=O)[C@@H](N)Cc3c[nH]c4c(cccc34)O[C@@H]2c2c[nH]c3cc(ccc23)[C@@H]1CCCN)C(=O)N[C@@H](Cc1c[nH]c2ccccc12)C(=O)O` [D69, darobactin 69] the Kd [1] was 1.4 ± 0.4 µM, the “MIC P. aeruginosa [PA01]” value [2] was 1 µg/mL (≈ 0.919 µM) and the “MIC Pseudomonas aeruginosa PA01 DSM 22644” value [2] was 1 μg mL^–1. The “MIC P. aeruginosa PA14 DSM 19882” value [7] was 16 μg mL^–1, the “plasma t1/2” value [8] was greater than 4 h and the “IC50 HepG2” value [3] was greater than 37 µg/mL. The “MIC P. aeruginosa 84389” value ([9]; 84389 (MDR clinical isolate)) was 16–32 μg mL^–1, the “MIC P. aeruginosa 83979” value ([10]; 83979 (MDR clinical isolate)) was 8–16 μg mL^–1 and the “MIC A. baumannii NCTC 13301” value [11] was 8–16 μg mL^–1. The “MIC A. baumannii DSM-30008” value ([4]; DSM-30008) was 0.5 μg mL^–1, the “MIC A. baumannii [DSM-30008]” value ([4]; DSM-30008) was 0.5 µg/mL (≈ 0.459 µM) and the “MIC A. baumannii ATCC 17978” value [12] was 16 μg mL^–1. For the same molecule, the “plasma t1/2” value [13] was greater than 4 h, the “liver microsomes Clint” value ([14]; human) was less than 11.6 µL/min/mg and the “liver microsomes t1/2” value ([14]; human) was greater than 2 h. For the same molecule, the “liver microsomes Clint” value ([14]; mouse C57BL/6) was less than 11.6 µL/min/mg, the “liver microsomes t1/2” value ([14]; mouse C57BL/6) was greater than 2 h and the “metabolism in murine liver microsomes” value ([14]; over 2 h) was “not metabolized”. For the same molecule, the “liver microsomes Clint” value ([14]; rat (Wistar)) was less than 11.6 µL/min/mg, the “liver microsomes t1/2” value ([14]; rat (Wistar)) was greater than 2 h and the “plasma t1/2” value (mouse CD-1 plasma, 1 μM) was greater than 4 h. For the same molecule, the “plasma stability (degradation)” value (over 4 h) was “no degradation”, the “MIC Acinetobacter baumannii DSM-30007” value [15] was 2 μg mL^–1 and the “MIC E. coli [ATCC25922]” value ([5]; ATCC25922) was 1 µg/mL (≈ 0.919 µM). The “MIC K. pneumoniae [DSM-30104]” value ([6]; DSM-30104) was 4 µg/mL (≈ 3.68 µM).
With `N=C(N)NCC[C@H]1c2ccc3c(c[nH]c3c2)[C@H]2Oc3cccc4c(c[nH]c34)C[C@H](N)C(=O)N[C@@H](CC(N)=O)C(=O)N[C@@H]2C(=O)N[C@@H](CO)C(=O)N[C@@H]1C(=O)N[C@@H](CO)C(=O)N[C@@H](Cc1ccccc1)C(=O)O` [DD, darobactin D, reference compound] the “MIC P. aeruginosa [PA01]” value [2] was 2 µg/mL (≈ 2.01 µM), the “MIC A. baumannii [DSM-30008]” value ([4]; DSM-30008) was 4 to 8 µg/mL and the “MIC E. coli [ATCC25922]” value ([5]; ATCC25922) was 1 µg/mL (≈ 1.01 µM). For the same molecule, the published antibacterial activity [16] was “inactive” and the “MIC K. pneumoniae [DSM-30104]” value ([6]; DSM-30104) was 8 to 16 µg/mL.
Work on `C[C@@H](O)[C@H]1C(=O)N2C(C(=O)O)=C(S[C@@H]3CN[C@H](C(=O)N(C)C)C3)[C@H](C)[C@H]12` [meropenem] yielded an MIC ([9]; Pseudomonas aeruginosa, read-out: MIC P. aeruginosa 84389) of 16 µg/mL (≈ 41.7 µM), an MIC ([10]; BAL, read-out: resistance profile, MIC, P. aeroginosa 83979) greater than 16 µg/mL and an MIC ([10]; read-out: MIC P. aeruginosa 83979) of 16 µg/mL (≈ 41.7 µM).
In the case of “darobactin E (WSWSKSF) [DE, native darobactin analogue, core peptide WSWSKSF]”, the published antibacterial activity [16] is given as “rather inactive”.
